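Test compounds were applied to cells in 96-well plates for 48 hours at 5 doses. GI50 is the concentration that inhibits growth by half.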 Activity calls are given as the source filed them. Rule as the data show it: active = GI50 up to about 1.1 µM and inactive = higher.
What was measured:
Assay in all cases: inhibition of tumour cell growth, NCI panel, 48 h
[1] = system: RPMI-8226
[2] = system: NCI-H226
[3] = system: SK-OV-3
[4] = system: OVCAR-8
[5] = system: UACC-257
[6] = system: M14
[7] = system: SNB-75
[8] = system: HL-60
[9] = system: HOP-18
[10] = system: OVCAR-4
[11] = system: SN12C
[12] = system: CCRF-CEM
[13] = system: NCI-H460
[14] = system: CAKI-1
[15] = system: LOX IMVI
[16] = system: HT-29
[17] = system: TK-10
[18] = system: MOLT-4
[19] = system: ACHN
[20] = system: KM-20L2
[21] = system: A549
[22] = system: SK-MEL-28
[23] = system: OVCAR-5
[24] = system: SNB-19
[25] = system: SNB-78
[26] = system: SK-MEL-5
[27] = system: UO-31
[28] = system: NCI-H23
[29] = system: DMS-273
[30] = system: DLD-1
[31] = system: HOP-62
[32] = system: SF-268
[33] = system: RXF 393
[34] = system: COLO 205
[35] = system: 786-0
[36] = system: LXFL 529
[37] = system: EKVX
[38] = system: RXF 631
[39] = system: XF498
[40] = system: HCT-15
[41] = system: KM12
[42] = system: OVCAR-3
[43] = system: HOP-92
[44] = system: SF-295
[45] = system: Malme-3M
[46] = system: SW-620
[47] = system: HCC 2998
[48] = system: NCI-H522
[49] = system: DMS-114
[50] = system: U-251
[51] = system: SK-MEL-2
[52] = system: K562
[53] = system: UACC-62
[54] = system: SF-539
[55] = system: DU-145
[56] = system: IGROV-1
[57] = system: MDA-N
[58] = system: PC-3
[59] = system: MDA-MB-231
[60] = system: MDA-MB-435
[61] = system: HCT-116
[62] = system: Hs-578T
[63] = system: A498
[64] = system: T47D
[65] = system: SR
[66] = system: MCF7
[67] = system: NCI/ADR-RES

Cc1ccc(C(=O)CC2(O)C(=O)Nc3c(C)cc(Cl)cc32)cc1 (centres undefined)
GI50 [1]: 43200 nM (inactive)
GI50 [2]: > 100000 nM (inactive)
GI50 [3]: > 100000 nM (inactive)
GI50 [4]: > 100000 nM (inactive)
GI50 [5]: > 100000 nM (inactive)
GI50 [6]: > 100000 nM (inactive)
GI50 [7]: 47900 nM (inactive)
GI50 [8]: 59800 nM (inactive)
GI50 [9]: > 100000 nM (inactive)
GI50 [10]: 35700 nM (inactive)
GI50 [11]: > 100000 nM (inactive)
GI50 [12]: > 100000 nM (inactive)
GI50 [13]: > 100000 nM (inactive)
GI50 [14]: > 100000 nM (inactive)
GI50 [15]: > 100000 nM (inactive)
GI50 [16]: > 100000 nM (inactive)
GI50 [17]: > 100000 nM (inactive)
GI50 [18]: 59400 nM (inactive)
GI50 [19]: > 100000 nM (inactive)
GI50 [20]: > 100000 nM (inactive)
GI50 [21]: > 100000 nM (inactive)
GI50 [22]: > 100000 nM (inactive)
GI50 [23]: > 100000 nM (inactive)
GI50 [24]: > 100000 nM (inactive)
GI50 [25]: > 100000 nM (inactive)
GI50 [26]: > 100000 nM (inactive)
GI50 [27]: > 100000 nM (inactive)
GI50 [28]: > 100000 nM (inactive)
GI50 [29]: > 100000 nM (inactive)
GI50 [30]: > 100000 nM (inactive)
GI50 [31]: > 100000 nM (inactive)
GI50 [32]: > 100000 nM (inactive)
GI50 [33]: > 100000 nM (inactive)
GI50 [34]: > 100000 nM (inactive)
GI50 [35]: > 100000 nM (inactive)
GI50 [36]: > 100000 nM (inactive)
GI50 [37]: > 100000 nM (inactive)
GI50 [38]: > 100000 nM (inactive)
GI50 [39]: > 100000 nM (inactive)
GI50 [40]: > 100000 nM
GI50 [41]: > 100000 nM (inactive)
GI50 [42]: > 100000 nM (inactive)
GI50 [43]: > 100000 nM (inactive)
GI50 [44]: > 100000 nM (inactive)
GI50 [45]: > 100000 nM (inactive)
GI50 [46]: > 100000 nM (inactive)
GI50 [47]: > 100000 nM (inactive)
GI50 [48]: > 100000 nM (inactive)
GI50 [49]: 52100 nM (inactive)
GI50 [50]: > 100000 nM (inactive)
GI50 [51]: > 100000 nM (inactive)
GI50 [52]: 86500 nM (inactive)

COc1ncnc2c(NC3OC(CO)C(O)C3O)ncnc12 (centres undefined)
GI50 [1]: 371 nM (active)
GI50 [2]: 335 nM (active)
GI50 [3]: 525 nM (active)
GI50 [4]: 329 nM (active)
GI50 [5]: 1600 nM (inactive)
GI50 [53]: 299 nM (active)
GI50 [6]: 296 nM (active)
GI50 [54]: 246 nM (active)
GI50 [7]: 735 nM (active)
GI50 [8]: 41.4 nM (active)
GI50 [55]: 407 nM (active)
GI50 [9]: < 10 nM (active)
GI50 [10]: 713 nM (active)
GI50 [56]: 280 nM (active)
GI50 [11]: 428 nM (active)
GI50 [12]: < 20.9 nM (active)
GI50 [13]: 279 nM (active)
GI50 [57]: 274 nM (active)
GI50 [14]: 267 nM (active)
GI50 [58]: 493 nM (active)
GI50 [15]: 44.5 nM (active)
GI50 [16]: 68.5 nM (active)
GI50 [59]: 149 nM (active)
GI50 [17]: 298 nM (active)
GI50 [18]: 47.1 nM (active)
GI50 [60]: 578 nM (active)
GI50 [19]: 201 nM (active)
GI50 [20]: 407 nM (active)
GI50 [21]: 131 nM (active)
GI50 [61]: 54.1 nM (active)
GI50 [22]: 6890 nM (inactive)
GI50 [23]: 569 nM (active)
GI50 [24]: 1160 nM (inactive)
GI50 [25]: 668 nM (active)
GI50 [62]: 1030 nM (active)
GI50 [26]: 1190 nM (inactive)
GI50 [27]: 984 nM (active)
GI50 [28]: 240 nM (active)
GI50 [29]: 152 nM (active)
GI50 [30]: 306 nM (active)
GI50 [31]: 408 nM (active)
GI50 [63]: 411 nM (active)
GI50 [32]: 506 nM (active)
GI50 [33]: 794 nM (active)
GI50 [64]: 708 nM (active)
GI50 [34]: 307 nM (active)
GI50 [65]: 26.6 nM (active)
GI50 [35]: 537 nM (active)
GI50 [36]: 505 nM (active)
GI50 [37]: 596 nM (active)
GI50 [38]: 300 nM (active)
GI50 [39]: 902 nM (active)
GI50 [66]: 41 nM (active)
GI50 [40]: 179 nM
GI50 [41]: 458 nM (active)
GI50 [42]: 733 nM (active)
GI50 [43]: 15.6 nM (active)
GI50 [44]: 579 nM (active)
GI50 [45]: 2740 nM (inactive)
GI50 [67]: 417 nM (active)
GI50 [46]: 238 nM (active)
GI50 [47]: 1260 nM (inactive)
GI50 [48]: 1530 nM (inactive)
GI50 [49]: 213 nM (active)
GI50 [50]: 2510 nM (inactive)
GI50 [51]: 2470 nM (inactive)
GI50 [52]: 30.6 nM (active)

Source: ChEMBL document CHEMBL1201862, “PubChem BioAssay data set” (2004)
